Source: patent US11602533B2, “Crenolanib combination therapy” (Arog Pharmaceuticals, Inc., priority 2018, dated 2023)

Legend:
[1] = Clinical tolerability of crenolanib, single agent and with chemotherapy; format: in vivo; settings: single agent and combined with chemotherapy; most common adverse events gastrointestinal toxicities, elevated liver enzymes and bilirubin, edema/effusions
From the text: Unlike axitinib, VEGF/VEGFR antibodies are associated with minimal toxicity and the combination of these antibodies and chemotherapy is very well-tolerated. In particular, axinitinib monotherapy (in renal cancer patients) is associated with notable toxicities, including all-grade fatigue, anorexia, nausea, diarrhea and hand-foot syndrome in >25% of patients. Additionally, paclitaxel is less myelosuppressive than docetaxel. These improved toxicities support the combination of crenolanib and an alternative VEGFR inhibitor (including ramucirumab) in addition to and chemotherapy in patients with advanced cancers.

[2] = system: renal cancer patients; settings: monotherapy; cited from earlier work
[3] = system: gastric cancer; settings: monotherapy; cited from earlier work
[4] = system: tumor interstitial pressure; settings: rat model; cited from earlier work
[5] = system: tumors; settings: treatment with imatinib; cited from earlier work
[6] = system: implanted tumors; settings: mouse; cited from earlier work

In the case of `CC1(COc2ccc3c(c2)ncn3-c2ccc3cccc(N4CCC(N)CC4)c3n2)COC1` [crenolanib, 4-Piperidinamine, 1-[2-[5-[(3-methyl-3-oxetanyl)methoxy]-1H-benzimidazol-1-yl]-8-quinolinyl]], the tolerability [1] is reported as “generally well tolerated”.

In the case of `CNC(=O)c1ccccc1Sc1ccc2c(/C=C/c3ccccn3)n[nH]c2c1` [axinitinib], the “patients with all-grade fatigue, anorexia, nausea, diarrhea and hand-foot syndrome” value [2] is given as > 25%.

In the case of “ramucirumab: antibody against VEGF receptor 2 (VEGFR2)”, the “progression-free survival (PFS) improvement over placebo” value [3] is given as 0.8 months and the “response rate (RR)” value [3] is given as 3%.

For `Cc1ccc(NC(=O)c2ccc(CN3CCN(C)CC3)cc2)cc1Nc1nccc(-c2cccnc2)n1` [Imatinib], the “effect on capillary-to-interstitium transport of solutes” value [4] is given as “increase the capillary-to-interstitium transport of solutes”, the “effect on interstitial hypertension” value [4] is given as “decrease interstitial hypertension” and the “effect on anti-tumor effect of paclitaxel” value [5] is given as “increased anti-tumor effect of paclitaxel”. For the same compound, the “effect on paclitaxel uptake by the tumors” value [5] was “increased paclitaxel uptake by the tumors”.

In the case of `Cc1cc(C)c(/C=C2\C(=O)Nc3ccccc32)[nH]1` [SU5416], the “effect on established tumor blood vessels” value [6] is listed as “failed to induce regression of established blood vessels” and the “effect on tumor growth” value [6] is listed as “prevented tumor growth”.

For `Cc1[nH]c(/C=C2\C(=O)Nc3ccccc32)c(C)c1CCC(=O)O` [SU6668], the “effect on established tumor blood vessels” value [6] is listed as “regression of established tumor vessels” and the “effect on tumor growth” value [6] is listed as “suppression of tumor growth”.
